How the values were obtained:
[1] = system: conscious rat; assay: Direct monitoring of aortic blood pressure and heart rate from conscious rats; assay type: in vivo; conditions: doses 1, 3, 10, and 30 mg/kg
Excerpt: A method for the direct monitoring of aortic blood pressure and heart rate from conscious rats
The continuous monitoring of pulsatile blood pressure from unrestrained conscious rats surgically equipped with polyethylene cannulas was accomplished by means of a computer assisted data capture scheme (CADCS). The basic elements of the methodology are the cannulation procedure and the CADCS. Method
Cannulation Procedure: Rats were anesthetized with Telazol (1:1 tiletamine HCI and zolazepam HCI; WU PD, Ann Arbor, MI) 20-40 mg/kg IM and the descending aorta exposed via a midline incision. Cannulus fabricated from polyethylene tubing (Clay Adams, Parsippany, NJ) were inserted into the aorta via an undersized puncture hole below the renal arteries. The puncture hole was made by a 23 G disposable needle with a section of the aorta clamped off above and below the puncture site. The cannulas, consisting of a PE100 (0.86 mm ID) body and a PE50 (0.58 mm ID) tip, were attached to a trocar, inserted through the psoas muscle, and passed subcutaneously along the midline of the back and externalized between the ears. The cannulas were anchored to the psoas muscle and between the scapulae (3-0 green braided suture; Deknatel, Queens Village, NY). The midline incision was closed in two steps (muscle first, skin second) using continuous over-and-over sutures (4-0 chronic; Ethicon, Somerville, NJ). Each rat was then given penicillin 30,000 units subcutaneously (Penicillin G Procaine Sterile Suspension; Parke-Davis, Detroit, MI).
The rats were fitted with a harness-spring-swivel assembly designed to protect the cannula and to provide the rat relative freedom of movement. The harnesses were fabricated from nylon hook and loop tape (Velcro, Manchester, NH) cemented to a metal plate to which spring wires (18-8 stainless steel, Paragon Spring; Chicago, IL) were attached to brass swivels (BRS/LVE, Bellville: MD). Each polyethylene cannula was channeled through a spring and connected through a swivel to a pressure transducer (Model P23Gb; Statham Instruments; Hato Rey, Puerto Rico) and an infusion pump (Sage model 234-7; Orion Research, Cambridge, MA) by means of PE100 tubing. While on test, each rat received a continuous slow infusion of heparinized saline solution […] or 40 units of heparin per 24-hour period) to prevent clot formation. Additional "flushes" of the cannula with heparinized saline were carriedd out when the aortic pulse pressure (systolic minus diastolic) was less than 25 mm Hg.
CADCS: The pulsatile blood pressure and heart rate of each of 32 rats was monitored every minute by means of two in-laboratory microcomputers communicating directly with a data concentrator computer. The data were first stored on the data concentrator disk and then transferred to a magnetic tape for analysis and report generation by the main research computer (Varian V-74 or IBM). The overall scheme involved modulating the primary signal from the pressure transducer, generating the primary data set of the one- minute values for systolic, diastolic, and mean blood pressures and heart rate by the in-lab microcomputer and the storage, analysis, and report generation by the main research computer.
The transducers were connected to analog signal conditioning modules. The modules provided a regulated excitation voltage for the transducers, amplification as required to interface the microprocessors and an active low pass filter to compensate for the pressure wave form distortion produced by the flexible, fluid filled, narrow lumened cannula. The distortion was 22-26 Hz and thus provided a reliable estimate of both systolic and diastolic blood pressure.
The microcomputers (one for each of two groups of 16 rats) were connected to the input components through the module interface units, an analog-to-digital converter for the pressure wave form signal and the digital inputs for the dose and event marker switches. […]

[2] = system: pentobarbital-anesthetized dog; assay: Test for in vivo myocardial inotropic activity in anesthetized dog; conditions: intravenous; for % Change Blood Pressure: aortic blood pressure; for % Change Myocardial Contractility: dP/dt of left ventricular blood pressure
Procedure: Test for in vivo myocardial inotropic activity in anesthetized dog This screen consists of determining the effects of increasing intravenous doses of compound on myocardial contractility (dP/dt mad of left ventricular blood pressure), heart rate and aortic blood pressure of the pentobarbital-anesthetized dog. Adult mongrel dogs of either sex are anesthetized with pentobarbital, 35 mg/kg, IV, and are subsequently maintained under anesthesia with a continuous infusion of pentabarbital, 3.5 mg/kg/hour. The trachea is intubated but the animals are permitted to breathe spontaneously. A cannula is inserted into the femoral vein for administrating test agents. A Millar catheter tip pressure transducer or a fluid filled catheter is inserted into the ascending aorta via the femoral artery for measuring aortic blood pressure. A Millar catheter tip pressure transducer is passed into the left ventricle via the left carotid artery for measuring left ventricular blood pressure. Needle electrodes are.placed subcutaneously for recording a lead II electrocardiogram (ECG). Left ventricular and aortic blood pressures are recorded on a strip chart recorder. Heart rate, using a . biotachometer triggered from the R wave of the ECG, and the first derivative of left ventricular blood pressure (dP/dt), obtained with a differentiator amplifier coupled to the corresponding pressure amplifier, are also recorded. A period of at least 30 minutes is utilized to obtain control data prior to administration of test compound. Depending on solubility, the compounds are dissolved in 0.9% saline solution or in dilute HCI or NaOH (0.1 or 1.0 N) and are diluted to volume with normal saline. Ethanol or dimethylacetamide can be used as solvents if adequate dilutions can be made. Appropriate vehicle controls are administered when needed. Each dose of the test compound is administered in volume of 0.1 ml/kg over a period of one minute.

Row | Compound | aortic blood pressure [1] | % Change Heart Rate ([2]; dose 0.01 mg/kg) | % Change Blood Pressure ([2]; dose 0.01 mg/kg) | % Change Myocardial Contractility ([2]; dose 0.01 mg/kg) | % Change Heart Rate ([2]; dose 0.03 mg/kg) | % Change Blood Pressure ([2]; dose 0.03 mg/kg) | % Change Myocardial Contractility ([2]; dose 0.03 mg/kg) | % Change Heart Rate ([2]; dose 0.10 mg/kg) | % Change Blood Pressure ([2]; dose 0.10 mg/kg) | % Change Myocardial Contractility ([2]; dose 0.10 mg/kg) | % Change Heart Rate ([2]; dose 0.31 mg/kg) | % Change Blood Pressure ([2]; dose 0.31 mg/kg) | % Change Myocardial Contractility ([2]; dose 0.31 mg/kg) | further results
1 | O=C1CCC(c2ccc(OCCn3ccnc3)cc2)=NN1 [Example 12, 4,5-Dihydro-6-[4-[2-(1H-imidazol-1-yl)ethoxy]phenyl]-3(2H)-pyridazinone] | significant reduction | – | – | – | – | – | – | – | – | – | – | – | – | –
2 | O=C1CCC(c2ccc(-n3cccc3)cc2)=NN1 [Example 11, 4,5-Dihydro-6-[4-(H-pyrrol-1-yl)phenyl]-3(2H)-pyridazinone] | significant reduction | – | – | – | – | – | – | – | – | – | – | – | – | –
3 | O=C1CCC(c2ccc(-n3ccnc3)cc2)=NN1 [Example 3a, 4,5-Dihydro-6-[4-(1H imidazol-1-yl)phenyl]-3(2H)-pyridazinone] | – | −4.0% | −2.0% | 9% | −4.0% | −6.0% | 32% | −1.0% | −10.5% | 57% | 2.0% | −21.5% | 87% | –
4 | O=c1ccc(-c2ccc(OCCn3ccnc3)cc2)n[nH]1 [Example 16, 6-[4-[2-(1H Imidazol-1-yl)ethoxy]phenyl]-3(2H)-pyridazinone] | significant reduction | – | – | – | – | – | – | – | – | – | – | – | – | –
5 | O=c1ccc(-c2ccc(-n3cnc4c3CCCC4)cc2)n[nH]1 [Example 15, 6-[4-(4,5,6,7-Tetrahydro-1H benzimidazol-1-yl)phenyl]-3(2H)-pyridazinone] | significant reduction | – | – | – | – | – | – | – | – | – | – | – | – | –
6 | O=c1ccc(-c2cccc(-n3ccnc3)c2)n[nH]1 [Example 14, 6-[3-(1H-Imidazol-1-yl)phenyl]-3(2H)-pyridazinone] | significant reduction | – | – | – | – | – | – | – | – | – | – | – | – | –
7 | O=C1CCC(c2ccc(-n3cnnc3)cc2)=NN1 [Example 10] | significant reduction | – | – | – | – | – | – | – | – | – | – | – | – | –
8 | O=c1ccc(-c2ccc(-n3ccnc3)cc2)n[nH]1 [Example 13a, 6-[4-(1H-Imidazol-1-yl)phenyl]-3(2H)-pyridazinone] | – | 0.0% | 0.0% | 3% | 6.0% | −1.5% | 15% | 16.0% | −6.0% | 40% | 32.0% | −9.0% | 78% | –
9 | O=C1CCC(c2cccc(-n3ccnc3)c2)=NN1 [Example 6, 4,5-Dihydro-6-[3-(1-imidazol-1-yl)phenyl]-3(2H)-pyridazinone] | significant reduction | −2.0% | 1.0% | 6% | – | – | – | −1.0% | −1.0% | 36% | – | – | – | % Change Heart Rate ([2]; dose 0.30 mg/kg): 2.0%; % Change Blood Pressure ([2]; dose 0.30 mg/kg): −8.0%; % Change Myocardial Contractility ([2]; dose 0.30 mg/kg): 71%; % Change Heart Rate ([2]; dose 1.0 mg/kg): 11.0%; % Change Blood Pressure ([2]; dose 1.0 mg/kg): −20.0%; % Change Myocardial Contractility ([2]; dose 1.0 mg/kg): 114%
10 | O=C1CCC(c2ccc(-n3cnc4c3CCCC4)cc2)=NN1 [Example 8, 4,5-Dihydro-6-[4-(4,5,6,7-tetrahydro-1H-benzimidazol-1-yl)phenyl]-3(2H)-pyridazinone] | significant reduction | −3.0% | −2.5% | 10% | −15.0% | −7.0% | 21% | −17.0% | −11.0% | 51% | −18.0% | −17.0% | 95% | % Change Heart Rate ([2]; dose 1.0 mg/kg): −7.0%; % Change Blood Pressure ([2]; dose 1.0 mg/kg): −27.0%; % Change Myocardial Contractility ([2]; dose 1.0 mg/kg): 127%

From patent EP0075436B1, “Substituted 4,5-dihydro-6-(substituted)-phenyl-3(2H)-pyridazinones and 6-(substituted)phenyl-3(2H)-pyridazinones” (WARNER-LAMBERT COMPANY, priority 1981, dated 1983)
